Test results: patent publication US8101411B2, “Method for production of corosolic acid in suspension culture of plant cells” (Samyang Genex Corporation, priority 2005, dated 2012)

Legend:
[1] = cited from earlier work
[2] = test system: absorption of glucose into cells; conditions: similar to that of insulin; Chem Pharm. Bull. 41(12): 2129-2131, 1993; cited from earlier work
[3] = test system: suspension-cultured cells of Eriobotrya japonica; assay: Addition of inducing agent (elicitor) at the production stage of two-stage high cell-density suspension culture; format: cell-based; conditions: for Productivity of Corosolic acid / Productivity of Corosolic acid (% DW) / Cell Dry Weight: 14 days
Description: The cell dry weight was obtained by filtering sampled plant cell culture through Watman no. 4 filter paper using a Buchner funnel, and oven drying at a temperature of 60° C. for 24 hours. […] The % DW (Dry Weight) was calculated from the calculated concentration of corosolic acid. […] The volumetric productivity (mg/L) was calculated by multiplying the calculated % DW content with the cell concentration (g/L, DW) in cell culture. 50 ml of the cell lines which were obtained in EXAMPLE 1-2 were cultured in LS medium with addition of 10 μM of NAA and 1 μM of BA, and collected after 7 days, and 50 ml of 2× concentration of mB5 medium were mixed and cultured in a 250 ml flask. […] The Eriobotrya japonica cells were cultured according to the method of Example 3,except that the concentration of sucrose added to the mB5 medium as the carbon source at the production stage, and the inoculation ratio of Eriobotrya japonica cell were varied as in Table 7. […] In the two-stage culture by using high cell-density culture of Example 4, 6% of sucrose was added to mB5 medium at the production stage, and the inoculated amount was 6 g/L cell dry weight.

[4] = AgNO3 2 μM, added at 0-day culture
[5] = AgNO3 4 μM, added at 0 day culture
[6] = AgNO3 6 μM, added at 0-day culture
[7] = Methyl jasmonate 400 μM, added at 3-day culture
[8] = Sodium butyrate 1.0 mM, added at 3-day culture

For corosolic acid, the “effect on blood-sugar levels” value ([1]; clinical demonstration, Journal of Ethnopharmacology 87: 115 117, 2003) is listed as “rawer blood-sugar levels”, the side effects ([1]; in vivo) is listed as “without any side effects” and the “activity on absorption of glucose into cells” value [2] is listed as “promoting a rapid absorption of glucose into cells”.

For `O=[N+]([O-])[O-].[Ag+]` [AgNO3, silver nitrate], the “maximal concentration of cell increased by” value ([3]; 4 μM added, versus control) was 45%, the “productivity of the suspension-cultured cell” value ([3]; 2-6 μM added to the culture medium, versus control) was “increased the productivity” and the “Productivity of Corosolic acid” value [3, 4] was 1152.07 mg/L. The “Productivity of Corosolic acid (% DW)” value [3, 4] was 4.42 % DW, the “Cell Dry Weight” value ([3]; AgNO3 2 μM, added at 0-day culture, mB5, 6% sucrose, 6 g/L inoculum) was 26.05 g/L and the “Cell Dry Weight” value [3, 5] was 25.66 g/L. For the same molecule, the “Productivity of Corosolic acid” value [3, 5] was 1551.78 mg/L, the “Productivity of Corosolic acid (% DW)” value [3, 5] was 6.05 % DW and the “Cell Dry Weight” value [3, 6] was 24.57 g/L. For the same molecule, the “Productivity of Corosolic acid” value [3, 6] was 1335.86 mg/L and the “Productivity of Corosolic acid (% DW)” value [3, 6] was 5.44 % DW.

For `CC/C=C\CC1C(=O)CCC1CC(=O)OC` (stereo not shown) [Methyl jasmonate], the “amount of corosolic acid increased by” value ([3]; 400 μM methyl jasmonate, versus control) was 100%, the “Cell Dry Weight” value [3, 7] was 22.72 g/L and the “Productivity of Corosolic acid” value [3, 7] was 1913.16 mg/L. The “Productivity of Corosolic acid (% DW)” value [3, 7] was 8.42 % DW.

With `CCCC(=O)[O-].[Na+]` [Sodium butyrate] the “amount of corosolic acid increased by” value ([3]; 1 mM sodium butylate, versus control) was 100%, the “Cell Dry Weight” value [3, 8] was 24.54 g/L and the “Productivity of Corosolic acid” value [3, 8] was 2081.13 mg/L. For the same molecule, the “Productivity of Corosolic acid (% DW)” value [3, 8] was 8.48 % DW.
